According to article PMC12040169 (PLOS Biology, 2025):

Assay: in vitro
Conditions: human, hela cells, % viability

Compound	viability at 28.5 h, 10 µM	viability at 28.5 h, 10 µM (bulk resorufin, single well)
O=C(NCCn1nc(-c2ccco2)ccc1=O)c1ccccc1F [CBK283742]	92.5%	
CCN1C(=O)C2(CC(=O)N(CCCN(C)C(=O)c3ccco3)C2=O)c2cc(C)ccc21 (centres unmarked) [CBK075141]	94.3%	
CCCc1ccc(S(=O)(=O)Nc2cccc(C(=O)OCC)c2)cc1 [CBK034332]	92.5%	
COc1ccc(-c2ccc(OC)cc2C(=O)Nc2ccc3c(c2)N(C)C(=O)CO3)cc1 [CBK285650]	92%	
CN=C(S)N=C(Nc1ccccc1)c1ccccc1 [CBK261037]	89.1%	
CC(=O)Nc1ccc(-c2cccc(COC3CCN(C(=O)c4ccc(OC(C)C)cc4)CC3)c2)cc1 [CBK149485]	100%	
CS(=O)(=O)N[C@H]1C[C@H]2C(=O)Nc3ccc(-c4cccs4)cc3C(=O)N2C1 [CBK289359]	95.7%	
Cc1ccc(C(C)C(=O)N2CCC(C(=O)c3cccnc3)CC2)cc1 (centres unmarked) [CBK283516]	93.5%	
N#Cc1c(N)nc(SCC(=O)c2cc3ccccc3oc2=O)c(C#N)c1-c1ccc(O)cc1 [CBK261269]	103%	
C#C[C@H]1C[N@@]2CC[C@H]1C[C@@H]2CNS(=O)(=O)c1ccc(NC(C)=O)cc1 [CBK288752]	103%	
Fc1ccc(C2CCCN(CCCOc3cccc(F)c3)C2)cc1 (centres unmarked) [CBK016228B]	102%	
COc1cc(S(=O)(=O)NCc2ccncc2)c(C)cc1C [CBK269988]	91.8%	
O=C(/C=C/c1ccccc1)NC(=S)Nc1ccc2oc(-c3ccncc3)nc2c1 [CBK263687]	93.8%	
CCCc1cnc(N2CCOCC2)nc1 [CBK028742]	89%	
Cc1cc(=O)oc2c1c(C)nn2-c1nn[nH]n1 [CBK266732]	91%	
Cc1oc2ccc(O)cc2c1C(=O)N(C)CCN1CCCCC1 [CBK282158]	83%	
CCOC(=O)CN(C)Cc1c[nH]c2ccccc12 [CBK261869]	107%	
Cc1ccc(-n2cccn2)cc1S(=O)(=O)N1CCNCC1C (centres unmarked) [CBK307344]	85.1%	
CC1(C)Cc2c(cnn2-c2ccccc2)C(NS(=O)(=O)C2CC2)C1 (centres unmarked) [CBK307351]	102%	
CC(C)c1nccn1-c1ccc(NC(=O)CCCn2ccnc2)cc1 [CBK281380]	93%	
CCC(C)(C)c1ccc(S(=O)(=O)N2CCCN(Cc3cccc4c3OCO4)CC2)cc1 [CBK062872]	100%	
O=C(CCSc1c(Cl)cccc1[N+](=O)[O-])Nc1ccc(Br)c2cccnc12 [CBK266777]	101%	
CCc1nc2ccc(C(=O)NC3=NC(=O)CS3)cn2c1N(CC)C(C)=O [CBK145839]	100%	
CCn1c2ccccc2c2ccc(/C=N/NC(=O)c3ccc(O)cc3O)cc21 [CBK262948]	56.9%	
COc1cc(CN2CCC(C(=O)NC(c3ccc(Cl)cc3)c3ccsc3)CC2)cc(OC)c1 (centres unmarked) [CBK147962]	95.3%	
COc1ccc(CC(=O)N2CCCC(c3cccc(Cc4cccc(C)c4)n3)C2)cc1 (centres unmarked) [CBK286498]	99.8%	
CCn1cc(C2CN(S(=O)(=O)c3c(C)c(C)cc(C)c3C)CCO2)cn1 (centres unmarked) [CBK306171]	63.8%	

Compound	viability at 28.5 h, 10 µM	viability at 28.5 h, 10 µM (bulk resorufin, single well)
COc1nccnc1OC1CCN(CCc2ccc(F)cc2)CC1 [CBK084259]	102%	
CCOC(=O)c1c(NS(=O)(=O)c2cc(Cl)sc2Cl)sc2c1CCCC2 [CBK050397]	96.1%	
Cc1ccc(C(=O)COC(=O)CCN2C(=O)C3C4CCC(C4)C3C2=O)cc1[N+](=O)[O-] (centres unmarked) [CBK264096]	91.5%	
CC(C)n1cc(C(=O)NCc2cccnc2N(C)C2CCCCC2)cn1 [CBK307593]	105%	
COc1ccc(CCNC(=O)N2CCCCC2CO)cc1 (centres unmarked) [CBK156188]	92.8%	
Cc1cc(OCc2nnc(SCC(=O)N3CCN(c4ccccc4)CC3)n2C)ccc1Cl [CBK268611]	104%	
CC(C)c1ccc(NC(=O)CN2CCN(c3ccc(C(F)(F)F)cn3)CC2)cc1 [CBK086000]	81.9%	
Clc1ccc(COc2ccnc(N3CCCN(CC4CC4)CC3)n2)cc1Cl [CBK083963]	81.3%	
O=C(O)CCCCN1C(=O)c2ccccc2S1(=O)=O [CBK287189]	84.8%	
CC(C)NC(=O)C1CC2CCC1(C)CC21NC(=O)c2ccccc2O1 (centres unmarked) [CBK285261]	92%	
C=C(C)Cn1c(SCC(C)C)nnc1-c1scc(C)c1Cl [CBK200095]	92.7%	
Cc1nc(Nc2ccc(Cl)cc2)nc(N2CCN(C)CC2)n1 [CBK023855]	95.4%	
CC(Cc1cccs1)NC(=O)c1cc2c([nH]c1=O)CCCCC2 (centres unmarked) [CBK282523]	109%	
COc1cc(C(CC(=O)O)C(=O)O)c([N+](=O)[O-])cc1OC (centres unmarked) [CBK268541]	96.9%	
CN(C)C(=O)CN1CCN(CCc2ccccc2)CC1 [CBK126455]	98.8%	
O=C1NC2(CC3CCC2CC3C(=O)NC2CC2)Oc2ccccc21 (centres unmarked) [CBK284352]	99.6%	
COc1ccccc1N1CCN(C(=O)c2ccccc2C(=O)c2ccccc2)CC1 [CBK091506]	92.9%	
CS(=O)(=O)N1CCN(c2ccccc2NC(=O)COc2ccc(Cl)cc2)CC1 [CBK268854]	94.7%	
CCC(O)Cn1nc(CCSC)nc1-c1ccc2[nH]ccc2c1 (centres unmarked) [CBK307526]	104%	
Cc1csc(NS(=O)(=O)CC(C)C)n1 [CBK021434]	89.1%	
CCCC/C=C/c1cn2ccnc2c(N2CCOCC2)n1 [CBK038031]	100%	
Cc1ccc2nc(COC(=O)c3ccc(Cn4nnc5ccccc54)cc3)cn2c1 [CBK297923]	96.6%	
CC(C)(C)c1nnc([C@H]2CCN(C(=O)CCC(=O)O)C2)o1 [CBK289406]	96.1%	
CC(C)NC(=O)Nc1ccc(C(=O)N(CCC#N)Cc2ccco2)cc1 [CBK305999]	82.3%	
CCc1ccc(NS(=O)(=O)c2cnn(CC)c2)cc1 [CBK270314]	101%	
COc1ccc2[nH]cc(C3CCN(Cc4nc(C)no4)CC3)c2c1 [CBK305982]	94.6%	
O=C(NC(c1ccccc1)c1cccnc1)C1CCN(C(=O)CN2C(=O)c3ccccc3C2=O)CC1 (centres unmarked) [CBK060515]	108%	

Compound	viability at 28.5 h, 10 µM	viability at 28.5 h, 10 µM (bulk resorufin, single well)
C=C(C)CN1CCN(C(=O)C(CC)Oc2ccccc2F)CC1 (centres unmarked) [CBK282935]	90.1%	
COc1cccc(CN2CCCC(NC(=O)c3cnn(C(C)C)c3)C2)c1 (centres unmarked) [CBK307477]	91.3%	
CC(C)CN1C[C@H]2N(C)C(=O)c3ccccc3C(=O)[C@@]2(C)C1 [CBK283477]	86.6%	
O=C(Nc1cc(N2CCNCC2)ncn1)c1ccccc1 [CBK004215T]	94.3%	
CC(C)CNc1cc(Cl)c(S(=O)(=O)NCC(C)C)cc1C(=O)O [CBK263405]	93.5%	
CS(=O)(=O)NC1CCN(C2CCc3c(F)cc(F)cc32)C1 (centres unmarked) [CBK305101]	90.1%	
Cc1cccc(C(=O)NCCCNC(=O)c2ccncc2)c1 [CBK269572]	92.8%	
CCOc1ccc(NC(=O)C2CC=CCC2C(=O)O)cc1 (centres unmarked) [CBK274682]	110%	
FC(F)(F)c1cccc(OCc2ccc(-c3ccccc3)cc2)n1 [CBK115836]	92.1%	
COc1cc(C#N)ccc1OCc1ccccc1 [CBK002577]	62%	
Cc1ccc2cc(COC(=O)c3ccc(N4CCOCC4)nc3)c(Cl)nc2c1 [CBK295336]	90.5%	
COC(=O)CCc1ccc(S(=O)(=O)N2CCCN(Cc3ccc(Cl)c(C(F)(F)F)c3)CC2)cc1 [CBK062995]	102%	
Cc1ccc2nc(N3CCCC(O)C3)c(CN3CCSCC3)cc2c1 (centres unmarked) [CBK307000]	94.7%	
COc1cc(/C=C2/C(=O)NC(=O)N(c3ccccc3)C2=O)cc(Cl)c1O [CBK263361]		93.3%
Cc1cccc(C(=O)Nc2ncn(CC(=O)N3CCCCCC3)n2)n1 [CBK304954]	86.6%	
Cc1[nH]c(=O)[nH]c(=O)c1CC(=O)N1CCc2ncc(Cl)cc2C1 [CBK286302]	101%	
O=C(OCc1ccccc1)N1CCC2(CC1)CN(c1ccc(C(F)(F)F)cn1)CCO2 [CBK161116T]	95.8%	
CN1CCC[C@H]1c1nc(-c2ccc(-n3ccnc3)nc2)no1 [CBK288893]	96.6%	
Clc1ccccc1-c1nccnc1NCc1cccs1 [CBK037362]	98.6%	
O=C(O)COc1ccc(S(=O)(=O)N2CCCc3ccccc32)cc1 [CBK269935]	110%	
O=C(NCCCn1cccc1)N1CCN(Cc2ccc(F)cc2)CC1 [CBK306994]	107%	
O=c1c2ccccc2n2c(=O)[nH]nc2n1-c1ccccc1 [CBK288352]	104%	
O=C1NC2=NOCCC2=CN1[C@H]1C[C@@H](O)[C@@H](CO)O1 [CBK201192]	96.8%	
CC1=C[C@@H](CO)[C@H](C(C)C)C[C@H]1CC(=O)N1CCN(CCO)CC1 [CBK289217]	85.7%	
C=CCNC(=O)c1cc(Br)cnc1NCC1CC1 [CBK076424]	102%	
O=S(=O)(NCc1cccnc1)N1CCOCC1 [CBK269945]	85.1%	
